pIC50: −log10 of the molar value.
Molecular target: T1, human Nav1.7 channels (Homo sapiens, UniProt Q15858)
T1 construct: expressed in transfected cells; host or cells: CHO
Experiment: FRET assay, human Nav1.7 (EFS on FDSS)
Assay type: cell-based
Conditions: CHO cells expressing human Nav1.7, read-out: IC50 against Nav1.7
In short: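 CHO cells stably expressing the channel, loaded with CC2-DMPE (10 µM) then DiSBAC2(3) (15 µM) plus VABSC-1, in HEPES-buffered saline pH 7.4 at room temperature. Electrical field stimulation on FDSS; FRET ratio at 440 nm fitted for IC50.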

T1 sequence (Q15858 whole entry): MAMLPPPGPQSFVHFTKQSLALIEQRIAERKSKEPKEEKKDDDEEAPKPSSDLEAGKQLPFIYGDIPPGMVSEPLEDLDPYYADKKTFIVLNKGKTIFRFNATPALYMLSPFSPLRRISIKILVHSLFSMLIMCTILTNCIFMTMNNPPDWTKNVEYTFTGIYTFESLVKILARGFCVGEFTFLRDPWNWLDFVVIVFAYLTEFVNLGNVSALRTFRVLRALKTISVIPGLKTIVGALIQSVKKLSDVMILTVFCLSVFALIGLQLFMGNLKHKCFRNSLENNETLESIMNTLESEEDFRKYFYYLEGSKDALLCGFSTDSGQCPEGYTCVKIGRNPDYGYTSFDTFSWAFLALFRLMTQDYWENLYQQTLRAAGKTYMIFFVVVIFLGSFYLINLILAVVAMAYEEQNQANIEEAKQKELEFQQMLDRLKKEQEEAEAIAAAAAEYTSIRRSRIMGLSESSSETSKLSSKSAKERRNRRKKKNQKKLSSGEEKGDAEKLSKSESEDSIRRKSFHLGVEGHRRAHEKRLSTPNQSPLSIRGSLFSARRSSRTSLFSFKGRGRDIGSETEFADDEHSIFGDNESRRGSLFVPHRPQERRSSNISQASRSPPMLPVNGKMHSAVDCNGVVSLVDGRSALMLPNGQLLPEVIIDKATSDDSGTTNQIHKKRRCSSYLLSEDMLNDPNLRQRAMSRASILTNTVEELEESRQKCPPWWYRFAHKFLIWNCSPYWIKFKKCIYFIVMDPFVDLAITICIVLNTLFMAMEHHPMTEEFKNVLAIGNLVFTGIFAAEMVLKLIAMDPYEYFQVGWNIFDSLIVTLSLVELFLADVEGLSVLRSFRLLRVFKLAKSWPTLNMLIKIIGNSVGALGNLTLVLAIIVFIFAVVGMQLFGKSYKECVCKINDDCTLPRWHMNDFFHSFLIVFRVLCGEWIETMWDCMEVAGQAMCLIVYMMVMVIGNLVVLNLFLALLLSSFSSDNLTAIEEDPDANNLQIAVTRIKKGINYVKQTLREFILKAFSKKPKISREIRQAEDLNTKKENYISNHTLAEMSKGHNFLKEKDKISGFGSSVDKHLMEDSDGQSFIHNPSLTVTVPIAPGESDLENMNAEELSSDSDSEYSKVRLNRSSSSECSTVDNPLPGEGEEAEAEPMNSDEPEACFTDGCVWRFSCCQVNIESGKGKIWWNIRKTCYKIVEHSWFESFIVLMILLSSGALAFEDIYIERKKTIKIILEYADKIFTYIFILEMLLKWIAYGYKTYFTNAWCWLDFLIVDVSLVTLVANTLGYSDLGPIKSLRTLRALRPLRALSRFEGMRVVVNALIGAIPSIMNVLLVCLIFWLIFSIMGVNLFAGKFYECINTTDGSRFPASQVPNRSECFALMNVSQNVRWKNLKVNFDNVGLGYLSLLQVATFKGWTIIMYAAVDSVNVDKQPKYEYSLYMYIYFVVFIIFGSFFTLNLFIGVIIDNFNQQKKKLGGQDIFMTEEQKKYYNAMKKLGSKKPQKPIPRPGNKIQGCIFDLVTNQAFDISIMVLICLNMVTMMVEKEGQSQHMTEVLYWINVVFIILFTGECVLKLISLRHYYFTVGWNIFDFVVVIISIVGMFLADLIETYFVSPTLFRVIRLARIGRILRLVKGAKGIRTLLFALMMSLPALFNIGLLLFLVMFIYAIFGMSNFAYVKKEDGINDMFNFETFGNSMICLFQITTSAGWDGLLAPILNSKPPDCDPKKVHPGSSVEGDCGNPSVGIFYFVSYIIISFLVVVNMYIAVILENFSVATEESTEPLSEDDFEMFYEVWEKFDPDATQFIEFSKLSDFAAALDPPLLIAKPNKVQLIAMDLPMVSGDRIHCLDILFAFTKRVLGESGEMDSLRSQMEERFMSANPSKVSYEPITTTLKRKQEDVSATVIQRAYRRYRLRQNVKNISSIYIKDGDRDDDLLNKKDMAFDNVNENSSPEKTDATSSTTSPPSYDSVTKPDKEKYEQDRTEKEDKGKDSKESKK

Row | Compound | pIC50
1 | CCC(=O)Nc1cc(C(=O)NC(C)c2ccc(OCC(F)(F)F)nc2)cc(C)n1 (single isomer, unassigned) [Example 60, 2-methyl-6-propionamido-N-(1-(6-(2,2,2-trifluoroethoxy)pyridin-3-yl)ethyl)isonicotinamide] | > 6.00
2 | CCC(=O)Nc1cc(C(=O)NCc2cc(F)c(OCC(F)(F)F)nc2C)cc(C)n1 [Example 313, N-((5-fluoro-2-methyl-6-(2,2,2-trifluoroethoxy)pyridin-3-yl)methyl)-2-methyl-6-propionamidoisonicotinamide] | > 6.00
3 | CC(=O)Nc1cc(C(=O)NCc2cnc(OCC(F)(F)F)cc2C)cc(C)n1 [Example 243, 2-acetamido-6-methyl-N-((4-methyl-6-(2,2,2-trifluoroethoxy)pyridin-3-yl)methyl)isonicotinamide] | > 6.00
4 | Cc1cc(C(=O)NCc2cnc(OCC(F)F)c(C)c2)cc(NC(=O)C2CC2)n1 [Example 851, 2-(cyclopropanecarboxamido)-N-((6-(2,2-difluoroethoxy)-5-methylpyridin-3-yl)methyl)-6-methylisonicotinamide] | > 6.00
5 | Cc1cc(C(=O)NC(C)c2ccc(OCC(F)(F)F)nc2)cc(NC(=O)C2CC2)n1 (single isomer, unassigned) [Example 61, 2-(cyclopropanecarboxamido)-6-methyl-N-(1-(6-(2,2,2-trifluoroethoxy)pyridin-3-yl)ethyl)isonicotinamide] | > 6.00
6 | Cc1cc(C(=O)NC(C)c2cnc(OCC(F)(F)C(F)F)c(C)c2)nc(NC(=O)C2CC2)n1 (single isomer, unassigned) [Example 907, 2-(cyclopropanecarboxamido)-6-methyl-N-(1-(5-methyl-6-(2,2,3,3-tetrafluoropropoxy)pyridin-3-yl)ethyl)pyrimidine-4-carboxamide] | > 6.00
7 | CC(=O)Nc1cc(C(=O)NC(C)c2ccc(OCC(F)(F)F)cc2Cl)cc(C)n1 (single isomer, unassigned) [Example 800, 2-acetamido-N-(1-(2-chloro-4-(2,2,2-trifluoroethoxy)phenyl)ethyl)-6-methylisonicotinamide] | > 6.00
8 | CCC(=O)Nc1cc(C(=O)NC(C)c2ccc(OC(F)(F)F)cc2)cc(C)n1 (single isomer, unassigned) [Example 135, 2-methyl-6-propionamido-N-(1-(4-(trifluoromethoxy)phenyl)ethyl)isonicotinamide] | > 6.00
9 | CC(=O)Nc1cc(C(=O)NCc2cnc(OCC(F)F)c(Cl)c2)cc(C)n1 [Example 706, 2-acetamido-N-((5-chloro-6-(2,2-difluoroethoxy)pyridin-3-yl)methyl)-6-methylisonicotinamide] | > 6.00
10 | Cc1cc(C(=O)NCc2ccc(OCC(F)F)c(C)c2)nc(NC(=O)C2CC2)n1 [Example 996, 2-(cyclopropanecarboxamido)-N-(4-(2,2-difluoroethoxy)-3-methylbenzyl)-6-methylpyrimidine-4-carboxamide] | > 6.00
11 | CC(=O)Nc1cc(C(=O)NCc2cccc(OCC(F)(F)F)n2)ccn1 [Example 22, 2-acetamido-N-((6-(2,2,2-trifluoroethoxy)pyridin-2-yl)methyl)isonicotinamide] | > 6.00

Other lines, results leading:

Row | pIC50 | Compound
12 | > 6.00 | CCCC(=O)Nc1cc(C(=O)NC(C)c2cnc(OCC(F)(F)F)c(OC)c2)ccn1 (single isomer, unassigned) [Example 331, 2-butyramido-N-(1-(5-methoxy-6-(2,2,2-trifluoroethoxy)pyridin-3-yl)ethyl)isonicotinamide]
13 | > 6.00 | CC(=O)Nc1cc(C(=O)NCc2ccc(OCC(F)F)cc2C)cc(C)n1 [Example 1007, 2-acetamido-N-(4-(2,2-difluoroethoxy)-2-methylbenzyl)-6-methylisonicotinamide]
14 | > 6.00 | CC(=O)Nc1cc(C(=O)NC(C)c2ccc(OCC(F)(F)F)c(Cl)c2)cc(C)n1 (single isomer, unassigned) [Example 676, 2-acetamido-N-(1-(3-chloro-4-(2,2,2-trifluoroethoxy)phenyl)ethyl)-6-methylisonicotinamide]
15 | > 6.00 | Cc1cc(CNC(=O)c2ccnc(NC(=O)C(C)C)c2)ccc1OCC(F)F [Example 991, N-(4-(2,2-difluoroethoxy)-3-methylbenzyl)-2-isobutyramidoisonicotinamide]
16 | > 6.00 | CC(NC(=O)c1ccnc(NC(=O)C2CC2)c1)c1ccc(OCC(C)(F)F)nc1 (single isomer, unassigned) [Example 782, 2-(cyclopropanecarboxamido)-N-(1-(6-(2,2-difluoropropoxy)pyridin-3-yl)ethyl)isonicotinamide]
17 | > 6.00 | Cc1cc(C(C)NC(=O)c2ccnc(NC(=O)C(C)C)c2)ccc1OCC(F)F (single isomer, unassigned) [Example 862, N-(1-(4-(2,2-difluoroethoxy)-3-methylphenyl)ethyl)-2-isobutyramidoisonicotinamide]
18 | > 6.00 | CC(NC(=O)c1ccnc(NC(=O)C2CC2)c1)c1ccc(OCC(F)(F)C(F)F)nc1 (single isomer, unassigned) [Example 922, 2-(cyclopropanecarboxamido)-N-(1-(6-(2,2,3,3-tetrafluoropropoxy)pyridin-3-yl)ethyl)isonicotinamide]
19 | > 6.00 | CC(=O)Nc1cc(C(=O)NC(C)c2ccc(OCC(F)(F)F)cc2Cl)ccn1 (single isomer, unassigned) [Example 796, 2-acetamido-N-(1-(2-chloro-4-(2,2,2-trifluoroethoxy)phenyl)ethyl)isonicotinamide]
20 | > 6.00 | CC(C)C(=O)Nc1cc(C(=O)NCc2cnc(OCC(F)(F)F)c(Br)c2)ccn1 [Example 897, N-((5-bromo-6-(2,2,2-trifluoroethoxy)pyridin-3-yl)methyl)-2-isobutyramidoisonicotinamide]
21 | > 6.00 | Cc1cc(C(=O)NCc2ccc(OCC(F)F)c(C)c2)cc(NC(=O)C(C)C)n1 [Example 994, N-(4-(2,2-difluoroethoxy)-3-methylbenzyl)-2-isobutyramido-6-methylisonicotinamide]
22 | > 6.00 | Cc1cc(C(=O)NCc2ccc(OCC(F)F)cc2Cl)cc(NC(=O)C(C)C)n1 [Example 1049, N-(2-chloro-4-(2,2-difluoroethoxy)benzyl)-2-isobutyramido-6-methylisonicotinamide]
23 | > 6.00 | Cc1cc(C(=O)NC(C)c2ccc(OCC(F)F)cc2C)cc(NC(=O)C(C)C)n1 (single isomer, unassigned) [Example 1104, N-(1-(4-(2,2-difluoroethoxy)-2-methylphenyl)ethyl)-2-isobutyramido-6-methylisonicotinamide]
24 | > 6.00 | Cc1cc(C(=O)NC(C)c2cnc(OCC(F)F)c(Cl)c2)cc(NC(=O)C2CC2)n1 (single isomer, unassigned) [Example 1063, N-(1-(5-chloro-6-(2,2-difluoroethoxy)pyridin-3-yl)ethyl)-2-(cyclopropanecarboxamido)-6-methylisonicotinamide]
25 | > 6.00 | CC(=O)Nc1cc(C(=O)NC(C)c2cc(C)nc(OCC(F)(F)F)c2)ccn1 (single isomer, unassigned) [Example 73, 2-acetamido-N-(1-(2-methyl-6-(2,2,2-trifluoroethoxy)pyridin-4-yl)ethyl)isonicotinamide]
26 | > 6.00 | CCC(=O)Nc1cc(C(=O)NC(C)c2ccc(OCC(C)(F)F)nc2)ccn1 (single isomer, unassigned) [Example 781, N-(1-(6-(2,2-difluoropropoxy)pyridin-3-yl)ethyl)-2-propionamidoisonicotinamide]
